Reference: ChEMBL document CHEMBL1142742, “Synthesis and in vitro and in vivo structure-activity relationships of novel antifungal triazoles for dermatology” (2005)
In brackets after ≈: the same amount, converted by molar mass.

Legend:
Assay type in all cases: functional
[1] = tested on: Trichophyton tonsurans; assay: Minimum inhibitory concentration against Trichophyton tonsurans (n=18)
[2] = species on record: Cavia porcellus; assay: Effective dose was measured in guinea pig infected with Microsporum canis on 14th day
[3] = species on record: Cavia porcellus; assay: Effective dose was measured in guinea pig infected with Microsporum canis on 21st day
[4] = species on record: Mus musculus; assay: Effective dose was measured in mice infected with Trichophyton mentagrophytes
[5] = species on record: Cavia porcellus; assay: Effective dose was measured in guinea pig infected with Microsporum canis on 7th day
[6] = tested on: Candida; assay: Minimum inhibitory concentration against Candida species (n=24)
[7] = tested on: Aspergillus sp.; assay: Minimum inhibitory concentration against Aspergillus species (n=8)
[8] = Minimum inhibitory concentration against Microsporum species (n=38)
[9] = tested on: Trichophyton rubrum; assay: Minimum inhibitory concentration against Trichophyton rubrum (n=14)
[10] = Minimum inhibitory concentration against Trichophyton species (n=80)
[11] = tested on: Epidermophyton floccosum; assay: Minimum inhibitory concentration against Epidermophyton floccosum (n=12)
[12] = tested on: Trichophyton benhamiae; assay: Minimum inhibitory concentration against Trichophyton mentagrophytes (n=20)
[13] = Trichophyton tonsurans, read-out: MIC50
[14] = Trichophyton tonsurans, read-out: MIC90
[15] = Cavia porcellus, read-out: ED50
[16] = Aspergillus sp., read-out: MIC50
[17] = Aspergillus sp., read-out: MIC90
[18] = Trichophyton rubrum, read-out: MIC50
[19] = Trichophyton rubrum, read-out: MIC90
[20] = Epidermophyton floccosum, read-out: MIC50
[21] = Epidermophyton floccosum, read-out: MIC90
[22] = Trichophyton benhamiae, read-out: MIC50
[23] = Trichophyton benhamiae, read-out: MIC90

Row | Structure (SMILES) | MIC50 [1, 13] | MIC90 [1, 14] | ED50 [2, 15] | ED50 [3, 15] | ED50 ([4]; Mus musculus, read-out: ED50) | ED50 [5, 15] | MIC90 [6] | MIC50 ([6]; Candida, read-out: MIC50) | MIC50 [7, 16] | MIC90 [7, 17] | MIC50 ([8]; Microsporum, read-out: MIC50) | MIC90 ([8]; Microsporum, read-out: MIC90) | MIC50 [9, 18] | MIC90 [9, 19] | MIC50 ([10]; Trichophyton, read-out: MIC50) | MIC90 ([10]; Trichophyton, read-out: MIC90) | MIC50 [11, 20] | MIC90 [11, 21] | MIC50 [12, 22] | MIC90 [12, 23] | also measured
1 | CC(C)N1CCN(c2ccc(N3CCN(c4ccc(OC[C@@H]5CO[C@@](Cn6cncn6)(c6ccc(F)cc6F)O5)cc4)CC3)cc2)C1=O | 1 µg/mL (≈ 1.52 µM) | 1 µg/mL (≈ 1.52 µM) | 0.44 mg/kg | 0.33 mg/kg | > 2.5 mg/kg | 0.33 mg/kg | > 20 µg/mL | 0.32 µg/mL (≈ 0.485 µM) | 0.66 µg/mL (≈ 1 µM) | 1.66 µg/mL (≈ 2.52 µM) | 0.1 µg/mL (≈ 0.152 µM) | 0.32 µg/mL (≈ 0.485 µM) | 0.32 µg/mL (≈ 0.485 µM) | 0.934 µg/mL (≈ 1.42 µM) | 0.32 µg/mL (≈ 0.485 µM) | 1 µg/mL (≈ 1.52 µM) | 0.032 µg/mL (≈ 0.0485 µM) | 0.093 µg/mL (≈ 0.141 µM) | 0.032 µg/mL (≈ 0.0485 µM) | 0.032 µg/mL (≈ 0.0485 µM) | 
2 | CCCn1c(=O)n(CC)c(=O)n(-c2ccc(N3CCN(c4ccc(OC[C@H]5CO[C@](Cn6cncn6)(c6ccc(F)cc6F)O5)cc4)CC3)cc2)c1=O |  |  | > 2.5 mg/kg | > 2.5 mg/kg |  | > 2.5 mg/kg | 10 µg/mL (≈ 13.7 µM) | 1 µg/mL (≈ 1.37 µM) | 10 µg/mL (≈ 13.7 µM) | > 20 µg/mL | 1 µg/mL (≈ 1.37 µM) | 13 µg/mL (≈ 17.8 µM) | 3.2 µg/mL (≈ 4.38 µM) | 3.2 µg/mL (≈ 4.38 µM) | > 20 µg/mL | > 20 µg/mL | 1 µg/mL (≈ 1.37 µM) | 3.2 µg/mL (≈ 4.38 µM) | 0.32 µg/mL (≈ 0.438 µM) | 1 µg/mL (≈ 1.37 µM) | 
3 | CCN1C(=O)N(c2ccc(N3CCN(c4ccc(OC[C@H]5OC[C@](Cn6cncn6)(c6ccc(F)cc6F)O5)cc4)CC3)cc2)C(=O)C(C)(C)C1=O | 3.2 µg/mL (≈ 4.47 µM) | 13 µg/mL (≈ 18.2 µM) | 2.35 mg/kg | 2.35 mg/kg |  | 2.35 mg/kg | > 20 µg/mL | 0.66 µg/mL (≈ 0.922 µM) | > 20 µg/mL | > 20 µg/mL | 3.2 µg/mL (≈ 4.47 µM) | > 20 µg/mL | 3.2 µg/mL (≈ 4.47 µM) | 10 µg/mL (≈ 14 µM) | 3.2 µg/mL (≈ 4.47 µM) | > 20 µg/mL | 1 µg/mL (≈ 1.4 µM) | 2.98 µg/mL (≈ 4.16 µM) | 3.2 µg/mL (≈ 4.47 µM) | 3.2 µg/mL (≈ 4.47 µM) | 
4 | CCCn1c(=O)n(CC)c(=O)n(-c2ccc(N3CCN(c4ccc(OC[C@@H]5OC[C@@](Cn6cncn6)(c6ccc(F)cc6F)O5)cc4)CC3)cc2)c1=O | > 20 µg/mL | > 20 µg/mL | > 2.5 mg/kg | > 2.5 mg/kg |  | > 2.5 mg/kg | > 20 µg/mL | 10 µg/mL (≈ 13.7 µM) | > 20 µg/mL | > 20 µg/mL | > 20 µg/mL | > 20 µg/mL | > 20 µg/mL | > 20 µg/mL | > 20 µg/mL | > 20 µg/mL | > 20 µg/mL | > 20 µg/mL | > 20 µg/mL | > 20 µg/mL | 
5 | CC(C)N1CCN(c2ccc(N3CCN(c4ccc(OC[C@H]5OC[C@](Cn6cncn6)(c6ccc(F)cc6F)O5)cc4)CC3)cc2)C1=O (stereo in doubt; 4c) [PRAMICONAZOLE] |  |  |  |  |  |  |  |  |  |  |  |  |  |  |  |  |  |  |  |  | MIC50 [1]: 0.32 µg/mL (≈ 0.485 µM); MIC90 [1]: 0.1 µg/mL (≈ 0.152 µM); ED50 [2]: <0.31 mg/kg; ED50 [3]: <0.31 mg/kg; ED50 [4]: <0.63 mg/kg; ED50 [5]: <0.31 mg/kg; MIC50 [6]: 0.1 µg/mL (≈ 0.152 µM); MIC50 [7]: >20 µg/mL; MIC90 [7]: >20 µg/mL; MIC50 [8]: 0.032 µg/mL (≈ 0.0485 µM); MIC90 [8]: 0.524 µg/mL (≈ 0.794 µM); MIC50 [9]: 0.32 µg/mL (≈ 0.485 µM); MIC90 [9]: 0.796 µg/mL (≈ 1.21 µM); MIC50 [10]: 0.1 µg/mL (≈ 0.152 µM); MIC90 [10]: 1.22 µg/mL (≈ 1.85 µM); MIC50 [11]: 0.32 µg/mL (≈ 0.485 µM); MIC90 [11]: 0.093 µg/mL (≈ 0.141 µM); MIC50 [12]: 0.01 µg/mL (≈ 0.0152 µM); MIC90 [12]: 0.032 µg/mL (≈ 0.0485 µM)
6 | CCC(C)n1ncn(-c2ccc(N3CCN(c4ccc(OC[C@H]5CO[C@](Cn6cncn6)(c6ccc(Cl)cc6Cl)O5)cc4)CC3)cc2)c1=O (some centres undefined) [ITRACONAZOLE] | 0.32 µg/mL (≈ 0.453 µM) | 0.524 µg/mL (≈ 0.743 µM) | 1.2 mg/kg | 1.18 mg/kg | 2.6 mg/kg | 0.84 mg/kg | 17 µg/mL (≈ 24.1 µM) | 0.1 µg/mL (≈ 0.142 µM) | 0.32 µg/mL (≈ 0.453 µM) | 1.18 µg/mL (≈ 1.68 µM) | 0.032 µg/mL (≈ 0.0453 µM) | 0.524 µg/mL (≈ 0.743 µM) | 0.01 µg/mL (≈ 0.0142 µM) | 0.32 µg/mL (≈ 0.453 µM) | 0.1 µg/mL (≈ 0.142 µM) | 1 µg/mL (≈ 1.42 µM) | 0.032 µg/mL (≈ 0.0453 µM) | 0.093 µg/mL (≈ 0.132 µM) | 0.01 µg/mL (≈ 0.0142 µM) | 0.129 µg/mL (≈ 0.183 µM) | 
7 | CN(C/C=C/C#CC(C)(C)C)Cc1cccc2ccccc12 [TERBINAFINE] | 0.032 µg/mL (≈ 0.11 µM) | 0.0524 µg/mL (≈ 0.18 µM) | 10 mg/kg | 10 mg/kg | 2.5 mg/kg | 10 mg/kg | 20 µg/mL (≈ 68.6 µM) | 20 µg/mL (≈ 68.6 µM) | 0.32 µg/mL (≈ 1.1 µM) | 1.66 µg/mL (≈ 5.7 µM) | 0.032 µg/mL (≈ 0.11 µM) | 0.032 µg/mL (≈ 0.11 µM) | 0.01 µg/mL (≈ 0.0343 µM) | 0.0254 µg/mL (≈ 0.0872 µM) | 0.01 µg/mL (≈ 0.0343 µM) | 0.032 µg/mL (≈ 0.11 µM) | 0.032 µg/mL (≈ 0.11 µM) | 0.093 µg/mL (≈ 0.319 µM) | 0.01 µg/mL (≈ 0.0343 µM) | 0.01 µg/mL (≈ 0.0343 µM) | 
